Source: ChEMBL document CHEMBL3046479, “Preparation and antimicrobial activity evaluation of some new bi- and triheterocyclic azoles” (2013)
In brackets after ≈: the same amount, converted by molar mass. Activity calls are given as the source filed them. No cut-off for these calls is given here.

What was measured:
Format in all cases: functional
Candida albicans = test: Antimicrobial activity against Candida albicans ATCC 60193 assessed as growth inhibition after 18-24 hr by broth double microdilution method
[1] = system: Yersinia pseudotuberculosis; test: Antimicrobial activity against Yersinia pseudotuberculosis ATCC 911 assessed as growth inhibition after 18-24 hr by broth double microdilution method
Bacillus cereus = test: Antimicrobial activity against Bacillus cereus 709 Roma assessed as growth inhibition after 18-24 hr by broth double microdilution method
Escherichia coli = test: Antimicrobial activity against Escherichia coli ATCC 35218 assessed as growth inhibition after 18-24 hr by broth double microdilution method
[2] = system: Mycolicibacterium smegmatis; test: Antimicrobial activity against Mycobacterium smegmatis ATCC 607 assessed as growth inhibition after 48-72 hr by broth double microdilution method
Pseudomonas aeruginosa = test: Antimicrobial activity against Pseudomonas aeruginosa ATCC 10145 assessed as growth inhibition after 18-24 hr by broth double microdilution method
Staphylococcus aureus = test: Antimicrobial activity against Staphylococcus aureus ATCC 25923 assessed as growth inhibition after 18-24 hr by broth double microdilution method
Enterococcus faecalis = test: Antimicrobial activity against Enterococcus faecalis ATCC 29212 assessed as growth inhibition after 18-24 hr by broth double microdilution method
Saccharomyces cerevisiae = test: Antimicrobial activity against Saccharomyces cerevisiae RSKK 251 assessed as growth inhibition after 18-24 hr by broth double microdilution method
Listeria monocytogenes = test: Antimicrobial activity against Listeria monocytogenes ATCC 43251 assessed as growth inhibition after 18-24 hr by broth double microdilution method

Row | SMILES | MIC (Candida albicans) | MIC [1] | MIC (Bacillus cereus) | MIC (Escherichia coli) | MIC [2] | MIC (Pseudomonas aeruginosa) | MIC (Staphylococcus aureus) | MIC (Enterococcus faecalis) | MIC (Saccharomyces cerevisiae) | MIC (Listeria monocytogenes)
1 | COc1ccc(/C=N/NC(=O)Cn2nc(C)n(/N=C/c3ccncc3)c2=O)cc1 | 250 µg/mL (≈ 635 µM) | inactive | inactive | inactive | inactive | inactive | inactive | inactive | inactive | inactive
2 | Cc1nn(-c2ccc(N)cc2F)c(=O)n1CCCn1ccnc1 | 250 µg/mL (≈ 790 µM) | inactive | inactive | inactive | 31.3 µg/mL (≈ 98.9 µM) | inactive | inactive | inactive | 62.5 µg/mL (≈ 198 µM) | inactive
3 | Cc1nn(CC(=O)N/N=c2\sc(-c3ccc(Cl)cc3)cn2-c2ccccc2)c(=O)n1/N=C/c1ccncc1 | 125 µg/mL (≈ 229 µM) | inactive | 125 µg/mL (≈ 229 µM) | inactive | inactive | inactive | 125 µg/mL (≈ 229 µM) | inactive | 250 µg/mL (≈ 459 µM) | inactive
4 | Cc1nn(CC(=O)N/N=C/c2ccccc2O)c(=O)n1/N=C/c1ccncc1 | 250 µg/mL (≈ 659 µM) | inactive | inactive | inactive | inactive | inactive | inactive | inactive | inactive | inactive
5 | Cc1nn(CNCc2ccco2)c(=O)n1CCCn1ccnc1 | 500 µg/mL (≈ 1580 µM) | inactive | 125 µg/mL (≈ 395 µM) | inactive | 125 µg/mL (≈ 395 µM) | inactive | inactive | inactive | inactive | inactive
6 | Cc1nn(CN2CCN(c3ccccc3)CC2)c(=O)n1CCCn1ccnc1 | inactive | 0.7 µg/mL (≈ 1.83 µM) | 1.2 µg/mL (≈ 3.15 µM) | inactive | inactive | 31.3 µg/mL (≈ 82 µM) | 62.5 µg/mL (≈ 164 µM) | inactive | 125 µg/mL (≈ 328 µM) | inactive
7 | Cc1nn(-c2ccc(/N=C/c3ccc(Br)cc3)cc2F)c(=O)n1CCCn1ccnc1 | inactive | inactive | inactive | inactive | 0.24 µg/mL (≈ 0.497 µM) | inactive | inactive | inactive | inactive | inactive
8 | Cc1nn(CC(=O)N/N=c2\sc(-c3ccc(Cl)cc3)cn2-c2ccccc2)c(=O)n1CCCn1ccnc1 | 250 µg/mL (≈ 455 µM) | inactive |  | inactive | 39.9 µg/mL (≈ 72.7 µM) | inactive | inactive | inactive | 1000 µg/mL (≈ 1820 µM) | inactive
9 | CCOC(=O)Cn1nc(C)n(/N=C/c2ccncc2)c1=O | 250 µg/mL (≈ 864 µM) | inactive | inactive | inactive | inactive | inactive | inactive | inactive | inactive | inactive
10 | Cc1nn(Cc2nnc(S)n2-c2ccccc2)c(=O)n1/N=C/c1ccncc1 | 250 µg/mL (≈ 637 µM) | inactive | inactive | inactive | inactive | inactive | inactive | inactive | inactive | inactive
11 | CCOC(=O)Cn1nc(C)n(CCCn2ccnc2)c1=O | 250 µg/mL (≈ 852 µM) |  | inactive | inactive | inactive | inactive | inactive | inactive | inactive | inactive
12 | Cc1n[nH]c(=O)n1CCCn1ccnc1 | 500 µg/mL (≈ 2410 µM) | inactive |  | inactive | 125 µg/mL (≈ 603 µM) | inactive | inactive | inactive | 1000 µg/mL (≈ 4830 µM) | inactive
13 | CN[C@@H]1[C@H](O[C@H]2[C@H](O[C@H]3[C@H](O)[C@@H](O)[C@H](N=C(N)N)[C@@H](O)[C@@H]3N=C(N)N)O[C@@H](C)[C@]2(O)C=O)O[C@@H](CO)[C@H](O)[C@H]1O [STREPTOMYCIN] |  |  |  |  | 4 µg/mL (≈ 6.88 µM) |  |  |  |  | 
14 | Cc1nn(CN2CCOCC2)c(=O)n1CCCn1ccnc1 | 31.2 µg/mL (≈ 102 µM) | 0.48 µg/mL (≈ 1.57 µM) | 0.24 µg/mL (≈ 0.783 µM) | 0.97 µg/mL (≈ 3.17 µM) | 15.6 µg/mL (≈ 50.9 µM) | 0.48 µg/mL (≈ 1.57 µM) | 0.48 µg/mL (≈ 1.57 µM) | 0.97 µg/mL (≈ 3.17 µM) | 7.81 µg/mL (≈ 25.5 µM) | 0.24 µg/mL (≈ 0.783 µM)
15 | CC1(C)S[C@@H]2[C@H](NC(=O)[C@H](N)c3ccccc3)C(=O)N2[C@H]1C(=O)O [AMPICILLIN] |  | 32 µg/mL (≈ 91.6 µM) | < 1 µg/mL |  |  | > 128 µg/mL | 2 µg/mL (≈ 5.72 µM) | 2 µg/mL (≈ 5.72 µM) |  | 8 µg/mL (≈ 22.9 µM)
16 | Cc1nn(-c2ccc(/N=C/c3c(Cl)cccc3Cl)cc2F)c(=O)n1CCCn1ccnc1 | 250 µg/mL (≈ 528 µM) | inactive | inactive |  | 3.9 µg/mL (≈ 8.24 µM) | inactive | inactive | inactive | inactive | inactive
17 | Cc1nn(CC(=O)NNC(=S)Nc2ccccc2)c(=O)n1/N=C/c1ccncc1 | inactive | inactive | inactive | inactive | inactive | inactive | inactive | inactive | inactive | inactive
18 | Cc1nn(Cc2nnc(S)n2-c2ccccc2)c(=O)n1CCCn1ccnc1 | 500 µg/mL (≈ 1260 µM) | inactive | inactive | inactive | 125 µg/mL (≈ 315 µM) | inactive | inactive | inactive | 500 µg/mL (≈ 1260 µM) | inactive
19 | Cc1nn(CC(=O)NNC(=S)Nc2ccccc2)c(=O)n1CCCn1ccnc1 | 250 µg/mL (≈ 603 µM) | inactive | inactive | inactive | 31.3 µg/mL (≈ 75.5 µM) | inactive | inactive | inactive | 62.5 µg/mL (≈ 151 µM) | inactive
20 | Cc1nn(-c2ccc([N+](=O)[O-])cc2F)c(=O)n1CCCn1ccnc1 | 500 µg/mL (≈ 1440 µM) | inactive | inactive | inactive | inactive | inactive | inactive | inactive | 500 µg/mL (≈ 1440 µM) | inactive
21 | Cc1nn(CC(=O)NN)c(=O)n1/N=C/c1ccncc1 | 500 µg/mL (≈ 1820 µM) | inactive | inactive | inactive | 250 µg/mL (≈ 908 µM) | inactive | inactive | inactive | inactive | inactive
22 | COc1ccc(/C=N/NC(=O)Cn2nc(C)n(/N=C/c3ccncc3)c2=O)cc1O | 125 µg/mL (≈ 305 µM) | inactive | inactive | inactive | inactive | inactive | inactive | inactive | inactive | inactive
23 | Cc1nn(CC(=O)N/N=C2\SCC(=O)N2c2ccccc2)c(=O)n1CCCn1ccnc1 | inactive | inactive | inactive | inactive | 62.5 µg/mL (≈ 138 µM) | inactive | inactive | inactive | inactive | inactive
24 | OC(Cn1cncn1)(Cn1cncn1)c1ccc(F)cc1F [FLUCONAZOLE] | < 8 µg/mL |  |  |  |  |  |  |  | < 8 µg/mL | 
25 | Cc1nn(CC(=O)NN)c(=O)n1CCCn1ccnc1 | inactive | 125 µg/mL (≈ 448 µM) | inactive | 125 µg/mL (≈ 448 µM) | 125 µg/mL (≈ 448 µM) | inactive | inactive | inactive | inactive | inactive
26 | Cc1nn(-c2ccc(N)cc2F)c(=O)[nH]1 | 125 µg/mL (≈ 600 µM) | inactive | inactive | inactive | 31.3 µg/mL (≈ 150 µM) | inactive | inactive | inactive | 500 µg/mL (≈ 2400 µM) | inactive
27 | Cc1nn(-c2ccc(NC(=S)NCc3ccccc3)cc2F)c(=O)n1CCCn1ccnc1 | 500 µg/mL (≈ 1070 µM) | inactive |  | inactive | 250 µg/mL (≈ 537 µM) | inactive | inactive | inactive | 500 µg/mL (≈ 1070 µM) | inactive
28 | Cc1nn(CNCCN2CCNCC2)c(=O)n1CCCn1ccnc1 | 125 µg/mL (≈ 359 µM) | 62.5 µg/mL (≈ 179 µM) | inactive | 1.2 µg/mL (≈ 3.44 µM) | 500 µg/mL (≈ 1430 µM) | inactive | 125 µg/mL (≈ 359 µM) | inactive |  | inactive
